This is an account of results in US11046647B2, “Activators of the unfolded protein response” (The Board of Trustees of the University of Illinois, priority 2018, dated 2021).

Experiment [1] relates to panel of cancer cell lines. The experiment is described as follows: Alamar blue 24-hour IC50 against a panel of cancer cell lines. It is filed as cell-based. The note with it: Homo sapiens, average. How it is done:
FIG. 36. Discovery of SERK-F6 (also known as, C(−)-105, (−)-105, (R)-105, (−)-1, or (R)-1), a compound that kills ERα-positive cancer cells, a, Chemical structures of BHPI and racemic compound 1 (i.e. (±)-1), and their cytotoxic activity on T47D breast cancer cells after 24-hour incubations with concentrations as indicated in nM. Cells were stained with annexin V-FITC and PI dyes prior to analysis via flow cytometry. […] Cells were incubated with SERK-F6 or positive control, Raptinal, for 24 hours and then stained with annexin V-FITC and PI dyes and analyzed via flow cytometry. […] Cell viability was measured by Alamar blue fluorescence and set relative to a vehicle control and a quantitative dead control treated with Raptinal. […] Cell number was determined by MTS.
FIG. 40. […] Concentration was determined via LC/MS/MS analysis. […] Concentrations were determined via LC/MS/MS analysis. […]
Cell lines: ERα positive breast cancer: T47D, MCF-7 TYS (T47D Y537S) TDG (T47D D538G), BT-474; ERα negative MDA-MB-231 breast cancer cells; 6,000 cells/well were plated (96 well plate) in 100 μl of medium. […] After 2-4 hours fluorescence in the wells was read (λex: 555 nm, λem: 585 nm, Spectra Max M3 Plate reader). % relative death was determined by setting the reading for 10,000 nM raptinal-treated cells to 100% dead cells and the reading for vehicle-treated cells to 0% dead cells. […]
(In general: Alamar Blue is a resazurin reagent that responds to reducing activity.)

The test system of experiment [2] is sp-XBP1 mRNA (unfolded protein response). As to the kind of experiment: Induction of spliced XBP-1 mRNA (qRT-PCR), T47D-luciferase cells. Format: cell-based, human. The conditions noted are these: 100 nM. How it is done:
ERα positive T47D-luciferase human breast cancer cells, were maintained for the indicated times in vehicle (Ctl, Control), 100 nM BHPI or 100 nM (−)-105. At the indicated times RNA was isolated and levels of sp-XBP1 mRNA quantitated by qRT-PCR. (n=3 ±SEM).
On the technique in general: Real-time PCR tracks product formation cycle by cycle.

The next experiment relates to parental T47D cells. The experiment is described as follows: MTS growth assay, parental T47D cells. It is filed as cell-based, human. The note with it: 100 nM and 1 μM; 4 days. As for the experimental part:
ERα containing T47D human breast cancer cells able to survive in 1 μM BHPI were selected by clonal outgrowth. The effect of 100 nM and 1 μM BHPI and (−)-105 on growth of the (BHPI-sensitive) parental T47D cells and partially BHPI-resistant T47D clones 1,3,8, and 11 was evaluated. 4,000 cells/well were plated. Cell number was determined by MTS assay from a standard curve of absorbance versus cell number. […] Thus, in 4 days (−)-105 killed some, but not all, of the resistant cells.

The subject of experiment [3] is MCF-7Y537S (MCF-7 ERαY537S-luciferase) cells. As to the kind of experiment: Long-term cell culture experiment, MCF-7 ERαY537S-luciferase. Format: cell-based, human. The conditions noted are these: conditions as FIG. 15 (1 μM).

For `O=C1Nc2c(C(F)(F)F)cccc2C1(c1ccc(O)cc1)c1ccc(OC(F)(F)F)cc1` (single isomer, unassigned; (-)) [(−)-105, 3-(4-hydroxyphenyl)-3-(4-(trifluoromethoxy)phenyl)-7-(trifluoromethyl)indolin-2-one], in experiment [1], it took 42 nM to reach half-maximal inhibition (IC50). For the same compound, the “UPR activation / induction of sp-XBP1” value in experiment [2] was “much stronger UPR hyper-activator and inducer of sp-XBP1 than BHPI”. Further, the “effect on growth / cell number” value with parental T47D cells is reported as “killed all the T47D cells”. In addition, in experiment [3], the “eradication of cells in long-term experiment” value was “eradicates”.
